Results reported in the supplement of paper PMC10011410.
± gives the standard deviation of the averaged measurements.

What was measured:
U-2 OS [1] = experiment: cell viability (CellTiter-Glo) relative to DMSO (% of control); higher = more viable; conditions: 24 h
Protocol: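 Cell viability of U-2 OS cells by CellTiter-Glo after 24 h compound treatment at 5, 10 and 20 uM (some at 40 and 80 uM), measured in parallel with the glutathione assay, as percent of DMSO control. Five technical replicate plates, averaged.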

U-2 OS [2] = experiment: AUC of culture confluence over time (live-cell imaging) (AUC (confluence % x time)); higher = more confluent culture (less growth inhibition)
Method in brief: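 Reported values are areas under curves of confluence against time, recorded by live-cell imaging of U-2 OS cells. Cells in F-12K medium with 10% FBS, seeded at 750 per well in 384-well plates, were treated by pin tool 24 h later, most compounds at 20, 10 and 5 μM with 0.2% DMSO. Imaging at 37 °C took place every 4 h for up to 60 h.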

U-2 OS [3] = experiment: intracellular GSH:GSSG ratio (calculated); higher = more reduced glutathione pool; conditions: 24 h
Protocol: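 Intracellular glutathione in U-2 OS cells after 24 h compound treatment at 5, 10 and 20 uM (some at 40 and 80 uM). Total glutathione and GSSG were measured with the GSH/GSSG-Glo kit, and the GSH:GSSG ratio was calculated. Mean of five technical replicate plates.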

U-2 OS [4] = experiment: relative cell count vs DMSO (cell painting) (fraction of DMSO control); higher = more cells remaining (less cytotoxic); conditions: 24 h
Method in brief: (§1)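 Using 384-well plates holding about 1,500 U-2 OS cells per well, treatment was applied by pin tool for 24 h at 37 °C, generally at six 2-fold concentrations ranging from 20 μM to 625 nM. Staining with MitoTracker, concanavalin A, phalloidin, wheat germ agglutinin, Hoechst and SYTO 14 preceded Opera Phenix imaging and CellProfiler feature extraction against DMSO cells on the same plate. Activity score and cell count are both referenced to DMSO wells, the former as a Mahalanobis distance. Four replicate plates were averaged for every value.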

U-2 OS [5] = experiment: cell painting activity score (Mahalanobis distance from DMSO wells); higher = stronger morphological phenotype; conditions: 24 h
Method in brief: as §1

U-2 OS [6] = experiment: total intracellular glutathione (GSH + GSSG) relative to DMSO (% of control); higher = more glutathione; conditions: 24 h
Protocol: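 Total intracellular glutathione (GSH + GSSG) in U-2 OS cells by GSH/GSSG-Glo after 24 h compound treatment at 5, 10 and 20 uM (some at 40 and 80 uM), as percent of DMSO control. Five technical replicate plates, averaged.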

Row | SMILES | cell viability (U-2 OS [1]; 5 µM) | cell viability (U-2 OS [1]; 10 µM) | cell viability (U-2 OS [1]; 20 µM) | AUC of culture confluence over time (U-2 OS [2]; 5 µM) | AUC of culture confluence over time (U-2 OS [2]; 10 µM) | AUC of culture confluence over time (U-2 OS [2]; 20 µM) | intracellular GSH:GSSG ratio (U-2 OS [3]; 5 µM) | intracellular GSH:GSSG ratio (U-2 OS [3]; 10 µM) | intracellular GSH:GSSG ratio (U-2 OS [3]; 20 µM) | relative cell count (U-2 OS [4]; 0.625 µM) | relative cell count (U-2 OS [4]; 1.25 µM) | relative cell count (U-2 OS [4]; 2.5 µM) | relative cell count (U-2 OS [4]; 5 µM) | relative cell count (U-2 OS [4]; 10 µM) | relative cell count (U-2 OS [4]; 20 µM) | cell painting activity score (U-2 OS [5]; 0.625 µM) | cell painting activity score (U-2 OS [5]; 1.25 µM) | cell painting activity score (U-2 OS [5]; 2.5 µM) | cell painting activity score (U-2 OS [5]; 5 µM) | cell painting activity score (U-2 OS [5]; 10 µM) | cell painting activity score (U-2 OS [5]; 20 µM) | total intracellular glutathione (U-2 OS [6]; 5 µM) | total intracellular glutathione (U-2 OS [6]; 10 µM) | total intracellular glutathione (U-2 OS [6]; 20 µM) | cell viability (U-2 OS [1]; 40 µM) | cell viability (U-2 OS [1]; 80 µM) | AUC of culture confluence over time (U-2 OS [2]; 40 µM) | AUC of culture confluence over time (U-2 OS [2]; 80 µM) | intracellular GSH:GSSG ratio (U-2 OS [3]; 40 µM) | intracellular GSH:GSSG ratio (U-2 OS [3]; 80 µM) | relative cell count (U-2 OS [4]; 40 µM) | relative cell count (U-2 OS [4]; 80 µM) | cell painting activity score (U-2 OS [5]; 40 µM) | cell painting activity score (U-2 OS [5]; 80 µM) | total intracellular glutathione (U-2 OS [6]; 40 µM) | total intracellular glutathione (U-2 OS [6]; 80 µM) | AUC of culture confluence over time (U-2 OS [2]; 0.625 µM) | AUC of culture confluence over time (U-2 OS [2]; 1.25 µM) | AUC of culture confluence over time (U-2 OS [2]; 2.5 µM)
1 | CC[C@]1(O)C[C@@H]2CN(CCc3c([nH]c4ccccc34)[C@@](C(=O)OC)(c3cc4c(cc3OC)N(C)[C@H]3[C@@](O)(C(=O)OC)[C@H](OC(C)=O)[C@]5(CC)C=CCN6CC[C@]43[C@@H]65)C2)C1 | 58.9 ± 5.4 | 57.8 ± 8.9 | 57.7 ± 2.6 | 18.2 | 17.6 | 20 | 2.94 | 2.94 | 2.96 | 0.236 | 0.246 | 0.221 | 0.223 | 0.24 | 0.255 | 27.2 | 24.9 | 24.9 | 24.2 | 24.4 | 24.4 | 60.6 ± 2.1 | 61.6 ± 7.3 | 60.5 ± 3.1 | – | – | – | – | – | – | – | – | – | – | – | – | – | – | –
2 | C=CC(=O)Nc1ccc(CN2C(=O)N(c3cc(OC)cc(OC)c3)Cc3cnc(Nc4ccc(N5CCN(C)CC5)cc4)nc32)cc1 | 91 ± 4.1 | 79.2 ± 3.3 | 69.2 ± 8.3 | 44.2 | 37.3 | 27.8 | 13.6 | 16.7 | 12.9 | 0.983 | 0.946 | 0.955 | 0.951 | 0.83 | 0.673 | 6.58 | 8.57 | 8.77 | 10.2 | 12.1 | 22.1 | 96.1 ± 3.3 | 93.1 ± 5 | 98.9 ± 4.6 | – | – | – | – | – | – | – | – | – | – | – | – | – | – | –
3 | Cc1cc2c(C(C)C)c(O)c(O)c(C=O)c2c(O)c1-c1c(C)cc2c(C(C)C)c(O)c(O)c(C=O)c2c1O | 96.4 ± 1.8 | 88.1 ± 5.2 | 68.2 ± 2.1 | 48.5 | 36.2 | 32.6 | 16.4 | 15.8 | 7.02 | 1.09 | 1.1 | 1.09 | 1.02 | 0.937 | 0.551 | 3.83 | 4.24 | 4.3 | 5.05 | 15.5 | 17.8 | 92.2 ± 3.2 | 70 ± 4.9 | 63.3 ± 3.2 | 42.7 ± 11 | 5.12 ± 1.6 | 18.2 | 18.5 | 3.8 | 1.25 | 0.246 | 0.261 | 22.1 | 24.1 | 62.8 ± 3.7 | 18.2 ± 4.2 | – | – | –
4 | CCOc1cc2ncc(C#N)c(Nc3ccc(OCc4ccccn4)c(Cl)c3)c2cc1NC(=O)/C=C/CN(C)C | 71.7 ± 4.9 | 71 ± 3.7 | 73.1 ± 7.3 | 33.1 | 34.1 | 21.3 | 11.7 | 10.4 | 8.69 | 0.995 | 0.842 | 0.811 | 0.76 | 0.778 | 0.757 | 6.66 | 11.4 | 14.6 | 10.9 | 9.93 | 13.4 | 58.3 ± 2.8 | 61.3 ± 2.5 | 59.5 ± 3.7 | – | – | – | – | – | – | – | – | – | – | – | – | – | – | –
5 | C[C@@H]1C[C@H]2O[C@@H]2/C=C\C=C\C(=O)Cc2c(Cl)c(O)cc(O)c2C(=O)O1 | 86.8 ± 3 | 24.7 ± 2.7 | 4.77 ± 0.71 | 19.9 | 21.3 | 20.2 | 27 | 7.74 | 3.63 | 0.852 ± 0.039 | 0.731 ± 0.047 | 0.597 ± 0.06 | 0.466 ± 0.042 | 0.419 ± 0.033 | 0.388 ± 0.018 | 14.6 ± 1.8 | 14.1 ± 1.8 | 15.2 ± 1.9 | 16.2 ± 1.9 | 16.1 ± 1.1 | 15.3 ± 0.8 | 87.8 ± 4.1 | 36 ± 6.1 | 12.9 ± 0.62 | – | – | – | – | – | – | – | – | – | – | – | – | 57.8 | 48.6 | 46.8
6 | O=[N+]([O-])c1cc(Br)c2nsnc2c1Sc1ncnc2nc[nH]c12 | 29.6 ± 6.5 | 6.03 ± 3.7 | 0.936 ± 0.27 | 12.5 | 14.1 | 18 | 9.74 | 2.76 | 4.35 | 0.89 | 0.788 | 0.814 | 0.205 | 0.0623 | 0.0543 | 5.04 | 8.02 | 7.08 | 16.2 | 17.9 | 17.8 | 56.4 ± 8.3 | 34.6 ± 12 | 7.7 ± 3.1 | – | – | – | – | – | – | – | – | – | – | – | – | – | – | –
7 | COc1cc2ncnc(Nc3ccc(F)c(Cl)c3)c2cc1NC(=O)/C=C/CN1CCCCC1 | 74.4 ± 5 | 59.5 ± 2.5 | 22.4 ± 5.3 | 26.9 | 14.6 | 13.7 | 10.8 | 7.42 | 1.96 | 0.624 | 0.681 | 0.586 | 0.503 | 0.331 | 0.035 | 10.6 | 10.4 | 11.7 | 13.9 | 18.6 | 22.1 | 81.2 ± 4.8 | 59.3 ± 3.2 | 18.3 ± 12 | – | – | – | – | – | – | – | – | – | – | – | – | – | – | –
